Literature values as cited in patent US20040038984A1, “Composition for male & female sexual arousal” (priority 2002, published 2004).

Settings: following oral administration

time of peak plasma concentrations: 1 to 2 h
SMILES: Cn1cc([S+](C)[O-])c(=O)c2ccc(F)cc21 (stereo not shown) [flosequinan]
